# Tests used:
# Zucker Fatty (ZF) rats [1] = test: Circadian changes of blood glucose and insulin under restricted feeding after four weeks of treatment; format: in vivo, rat
# Source text: The effectiveness of mitiglinide was examined by using Zucker Fatty (ZF) rats, which have the feature of obesity and insulin resistance. It is known that though ZF rats have hyperinsulinemia and impaired glucose tolerance, their fasting blood glucose is within a normal range and, therefore, their pathology is similar to IGT in human being (Br J Pharmacol 125, 1708-14, 1998).
# Male Zucker Fatty rats of 6 weeks old were introduced and acclimatized to the restricted feeding of one hour each (9:00 to 10:00 and 15:00 to 16:00) twice per a day. After acclimatization for one week, the rats were randomly divided into two groups, and drugs were administered to them for four weeks. As the drugs, mitiglinide suspended in 0.5% methylcellulose was forcibly orally administered to one group to become a dose of 3 mg/kg, and only 0.5% methylcellulose solution that is a dose vehicle was forcibly orally administered to the other group just before each meal twice per a day. The circadian changes of their blood glucose and insulin that occurred under the restricted feeding were measured upon starting the administration and in the fourth week after its start. The drugs were not administered on the measurement day, and their blood was collected through the caudal vein before morning feeding (9:00), one hour after the feeding (10:00), two hours after the feeding (11:00), before afternoon feeding (15:00), one hour after the feeding (16:00), and two hours after the feeding (17:00). Then, their blood glucose and insulin were measured in accordance with the routine method.
# Zucker Fatty (ZF) rats [2] = test: Insulin tolerance test (ITT); format: in vivo, rat
# Protocol: On another day of the fourth week, the insulin tolerance test (ITT) was conducted in order to examine the degree of improvement of the general insulin resistance. Commercially available insulin preparation (NOVORIN R, NOVO) diluted to 0.5 U/mL with a normal saline solution was subcutaneously injected to the back of ZF rats fasted overnight to become 0.5 U/kg. Their blood was collected through the caudal vein 15, 30, 60, 120 and 180 minutes after the administration to measure their blood glucose. The blood glucose was measured in accordance with the routine method.
# In response to the above results, ITT was conducted in order to more precisely quantify the degree of improvement of the general insulin sensitivity. […] However, the blood glucose lowered by about 50% of the level before the administration in 60 minutes after the administration of insulin due to the treatment by mitiglinide.
# [3] = feeding 9:00 to 10:00 and 15:00 to 16:00, fourth week, 3 mg/kg
# [4] = male ZF rats, 3 mg/kg orally just before each meal twice per day for four weeks, measured in fourth week, no drug on measurement day
compound,measurement,setting,value
"O=C(O)[C@H](CC(=O)N1C[C@H]2CCCC[C@H]2C1)Cc1ccccc1 [Mitiglinide, (2S)-2-benzyl-4-[(3aR, 7aS) -octahydro-2H-isoindole-2-yl]-4-oxobutanoic acid]",Circadian changes of the blood glucose (FIG. 1),Zucker Fatty (ZF) rats [1]; [3],no change
same,Insulin level in the blood plasma (FIG. 2),Zucker Fatty (ZF) rats [1]; [3],decrease of the insulin level was clearly seen
same,Sum of the circadian changes of blood glucose,Zucker Fatty (ZF) rats [1]; [4],1050 ± 20 mg·h/dL
same,Sum of the circadian changes of insulin,Zucker Fatty (ZF) rats [1]; [4],224 ± 11 ng·h/mL
same,Sum of blood glucose,"Zucker Fatty (ZF) rats [2]; ITT in fourth week, insulin 0.5 U/kg s.c., ZF rats fasted overnight, blood 15-180 min after insulin",243 ± 7 mg·h/dL
same,Blood glucose lowering relative to the level before the administration of insulin,"Zucker Fatty (ZF) rats [2]; ITT, 60 minutes after insulin 0.5 U/kg s.c., FIG. 3",about 50%
